In paper PMC10387993, “New pyrimidine-N-β-D-glucosides: synthesis, biological evaluation, and molecular docking investigations” (Turkish Journal of Chemistry, 2023):

Assays:
[1] = LDH cytotoxic activity assay, HT29; type: cell-based; settings: human, HT29 cells; for cytotoxicity at 24 h, 25 μg/mL: HT29, 25 μg/mL; for cytotoxicity at 24 h, 50 μg/mL: HT29, 50 μg/mL; for cytotoxicity at 24 h, 75 μg/mL: HT29, 75 μg/mL; for cytotoxicity at 24 h, 100 μg/mL: HT29, 100 μg/mL
Method in brief: (§1)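 Cells grown in DMEM or RPMI 1640 with 10% FBS were seeded at about 5 × 10^3 per well in triplicate. They were exposed to 25, 50, 75 and 100 μg/mL compound for 24 h at 37 °C, 5% CO2, and LDH release was measured by absorbance at 492–630 nm.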

[2] = molecular target: BSA (Bos taurus, UniProt P02769); test: BSA binding study, UV-Visible absorption; settings: UV-Vis, 25 μM compound, BSA 6.5–800 μM
Description: The vast majority of anticancer agents used in pharmaceutical chemistry act on functional macromolecules such as DNA and proteins. Given this well-known fact, the relationship between newly developed anticancer drug candidates and macromolecules should be studied in detail. The interaction of molecules with DNA leads to significant changes in the helical structure of DNA, which can be observed by spectrophotometric techniques. […] Also, the red or blue shift in the absorption bands of the compounds can be an indication of the stability of the compound and the DNA structure. The DNA/BSA binding properties of the new chemicals synthesized by our group were determined using a UV-Vis spectrophotometer. The interactions of these compounds with DNA were as follows. In the spectra obtained by UV-Vis studies of the compounds, a single maximum absorption peak was observed and this peak had no clear bathochromic or hypsochromic effect. […]. […] The physical interactions of our newly synthesized compounds with BSA caused the formation of the spectral bands described below. […]. […]. Kb is the binding constant related to the complex to DNA and can be calculated algebraically from the slope of the line drawn between [DNA] / (ɛa-ɛf) and [DNA]. […].
To find the interaction of the compounds with calf thymus DNA and to calculate the binding constants (Kb) UV–Visible absorption spectroscopy technique was used. A 2.5-mg calf thymus DNA was dissolved in 10.0 mL Tris–HCl buffer (20 mM Tris–HCl, 20 mM NaCl, pH 7.0) and stabile during one week in the refrigerator. […]. After dissolving the calf thymus DNA fibers in Tris–HCl buffer, the purity of this solution was checked from the absorbance ratio A260/A280. […]. These compounds were diluted with Tris–HCl buffer to obtain 25 μM concentrations. Test compounds in the solutions were incubated at room temperature for nearly 30 min before the process. The UV-visible spectral studies were performed in mixed solvent system (1/9 DMSO/Tris–HCl buffer) using eight points that the fine structure is observed for these compounds in this system by UV-visible absorption. […]. Absorption spectra were recorded by using 1-cm-path quartz cuvettes at room temperature. To evaluate the interaction of the compounds with BSA, UV–Visible absorption spectroscopy technique was also used. A 2.5 mg BSA was dissolved in 10.0 mL of Tris–HCl buffer (5 mM Tris–HCl, 10 mM NaCl at pH 7.4) and stored in the refrigerator. […]

[3] = LDH cytotoxic activity assay, FL; type: cell-based; settings: human, FL cells (normal cells)
Description: (§2) The cell lines were cultured in a cell medium (Dulbecco’s modified eagle’s or RPMI 1640) enriched with 10% (v/v) fetal bovine serum and 2% (v/v) Penicillin-Streptomycin (10,000 U/mL). First, old medium was removed out of the flask when the cells reached approximately 80% confluence. Next, cells were taken from the flasks surface using trypsin-EDTA solution and then subjected to centrifugation. Following, the cell pellet was suspended with fresh media and was inoculated into wells.
(§3) Approximately 5 × 10^3 cells in 100 μL were placed into 96-well plates as triplicates and treated with 25, 50, 75, and 100 μg/mL concentrations of test compounds at 37 °C with 5% CO2 for 24 h. LDH activity was obtained by determining absorbance at 492–630 nm using a microplate reader.

[4] = LDH cytotoxic activity assay, Hep3B; type: cell-based; settings: human, Hep3B cells
Description: as §2, §3

[5] = LDH cytotoxic activity assay, HeLa; type: cell-based; settings: human, HeLa cells
Method in brief: as §1

[6] = in vitro; type: cell-based; settings: human, LC50
Method in brief: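 Seed ~1 × 10^4 cells/well; final 200 μL. Add MTT in phenol-red-free RPMI 1640, 4 h. Solubilise formazan in DMSO + Sorenson's buffer, 30 min RT. Read 560/690 nm. ≥3 repeats.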

[7] = LDH cytotoxic activity assay, A549; type: cell-based; settings: human, A549 cells; for cytotoxicity at 24 h, 25 μg/mL: A549, 25 μg/mL; for cytotoxicity at 24 h, 50 μg/mL: A549, 50 μg/mL; for cytotoxicity at 24 h, 75 μg/mL: A549, 75 μg/mL; for cytotoxicity at 24 h, 100 μg/mL: A549, 100 μg/mL
Description: as §2, §3

[8] = LDH cytotoxic activity assay, MCF7; type: cell-based; settings: human, MCF7 cells; for cytotoxicity at 24 h, 25 μg/mL: MCF7, 25 μg/mL; for cytotoxicity at 24 h, 50 μg/mL: MCF7, 50 μg/mL; for cytotoxicity at 24 h, 75 μg/mL: MCF7, 75 μg/mL
Description: as §2, §3

[9] = LDH cytotoxic activity assay, C6; type: cell-based; settings: rat, C6 glioma cells; for cytotoxicity at 24 h, 25 μg/mL: C6, 25 μg/mL; for cytotoxicity at 24 h, 50 μg/mL: C6, 50 μg/mL; for cytotoxicity at 24 h, 75 μg/mL: C6, 75 μg/mL; for cytotoxicity at 24 h, 100 μg/mL: C6, 100 μg/mL
Method in brief: as §1

[10] = as the column head prints, head prints FL

BSA, sequence (P02769 25-607): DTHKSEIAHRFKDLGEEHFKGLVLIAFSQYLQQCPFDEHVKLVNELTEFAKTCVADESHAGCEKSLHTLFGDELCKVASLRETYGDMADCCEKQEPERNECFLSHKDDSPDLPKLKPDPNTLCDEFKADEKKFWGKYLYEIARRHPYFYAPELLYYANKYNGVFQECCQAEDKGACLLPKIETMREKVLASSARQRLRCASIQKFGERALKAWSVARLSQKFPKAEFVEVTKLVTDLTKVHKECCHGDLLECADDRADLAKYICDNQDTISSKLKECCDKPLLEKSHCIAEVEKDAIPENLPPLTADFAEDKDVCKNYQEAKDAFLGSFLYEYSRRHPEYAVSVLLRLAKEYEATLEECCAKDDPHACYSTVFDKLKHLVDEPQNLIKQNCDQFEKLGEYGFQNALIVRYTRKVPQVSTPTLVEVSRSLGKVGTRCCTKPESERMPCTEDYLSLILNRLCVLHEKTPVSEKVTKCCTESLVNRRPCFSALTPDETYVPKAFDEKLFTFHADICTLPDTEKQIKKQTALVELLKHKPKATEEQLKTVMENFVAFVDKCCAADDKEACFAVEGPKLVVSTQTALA

Compound	cytotoxicity at 24 h, 25 μg/mL [1] [%]	cytotoxicity at 24 h, 50 μg/mL [1] [%]	cytotoxicity at 24 h, 75 μg/mL [1] [%]	cytotoxicity at 24 h, 100 μg/mL [1] [%]	change of absorption on adding increasing amounts of BSA [2]	cytotoxicity at 24 h, 25 μg/mL ([3]; FL) [%]	cytotoxicity at 24 h, 50 μg/mL ([3]; FL) [%]	cytotoxicity at 24 h, 75 μg/mL ([3]; FL) [%]	cytotoxicity at 24 h, 100 μg/mL ([3]; FL) [%]	cytotoxicity at 24 h, 100 μg/mL [3, 10] [%]	cytotoxicity at 24 h, 25 μg/mL [4] [%]	cytotoxicity at 24 h, 25 μg/mL [5] [%]	cytotoxicity at 24 h, 50 μg/mL [5] [%]	cytotoxicity at 24 h, 75 μg/mL [5] [%]	cytotoxicity at 24 h, 100 μg/mL [5] [%]	LC50 (concentration causing 50% net cell loss) [6] [µg/mL]	cytotoxicity at 24 h, 25 μg/mL [9] [%]	cytotoxicity at 24 h, 50 μg/mL [9] [%]	cytotoxicity at 24 h, 75 μg/mL [9] [%]	cytotoxicity at 24 h, 100 μg/mL [9] [%]	other results
Cc1cccc(-c2cc(-c3ccccn3)nc(N[C@@H]3O[C@H](CO)[C@@H](O)[C@H](O)[C@H]3O)n2)c1 [Compound 4, N-[4-(3-methylphenyl)-6-pyridin-2-ylpyrimidin-2-yl]-β-D-glucopyranosylamine]	28.2	35.7	62.6	74.9	hyperchromic activity	24.4	32.4	48.3	69.5	40.2	19.6	26.9	64.3	77.1	97.2	> 500	22.1	49.3	68.9	89.2	cytotoxicity at 24 h, 50 μg/mL [4]: 28.9%; cytotoxicity at 24 h, 75 μg/mL [4]: 42%; cytotoxicity at 24 h, 100 μg/mL [4]: 64.8%; cytotoxicity at 24 h, 25 μg/mL [7]: 26%; cytotoxicity at 24 h, 50 μg/mL [7]: 33.2%; cytotoxicity at 24 h, 75 μg/mL [7]: 61.7%; cytotoxicity at 24 h, 100 μg/mL [7]: 72.5%; cytotoxicity at 24 h, 25 μg/mL [8]: 11.6%; cytotoxicity at 24 h, 50 μg/mL [8]: 22.5%; cytotoxicity at 24 h, 75 μg/mL [8]: 30%
Cc1cccc(-c2cc(-c3ccncc3)nc(N[C@@H]3O[C@H](CO)[C@@H](O)[C@H](O)[C@H]3O)n2)c1 [Compound 6, N-[4-(3-methylphenyl)-6-pyridin-4-ylpyrimidin-2-yl]-β-D-glucopyranosylamine]	24.8	34.5	68.9	85.6	hyperchromic activity	19.1	27.6	50.9	63.4	41.9	10	14.3	29.2	44.5	47.8	> 500	27.9	38.2	63.1	84.9	cytotoxicity at 24 h, 50 μg/mL [4]: 15.4%; cytotoxicity at 24 h, 75 μg/mL [4]: 35.9%; cytotoxicity at 24 h, 100 μg/mL [4]: 41.1%; cytotoxicity at 24 h, 25 μg/mL [7]: 27%; cytotoxicity at 24 h, 50 μg/mL [7]: 32%; cytotoxicity at 24 h, 75 μg/mL [7]: 48.1%; cytotoxicity at 24 h, 100 μg/mL [7]: 72.8%; cytotoxicity at 24 h, 25 μg/mL [8]: 7.22%; cytotoxicity at 24 h, 50 μg/mL [8]: 12.5%; cytotoxicity at 24 h, 75 μg/mL [8]: 31.8%
Cc1ccc(-c2cc(-c3cccnc3)nc(N[C@@H]3O[C@H](CO)[C@@H](O)[C@H](O)[C@H]3O)n2)cc1 [Compound 8, N-[4-(4-methylphenyl)-6-pyridin-3-ylpyrimidin-2-yl]-β-D-glucopyranosylamine]	20.6	34.5	75.8	95.9	–	20.8	34.1	41	69.9	43.5	15.6	12.5	35	42	49	> 500	28.4	45.4	63.2	88.7	cytotoxicity at 24 h, 50 μg/mL [4]: 20.5%; cytotoxicity at 24 h, 75 μg/mL [4]: 36.2%; cytotoxicity at 24 h, 100 μg/mL [4]: 52.9%; cytotoxicity at 24 h, 25 μg/mL [7]: 28.1%; cytotoxicity at 24 h, 50 μg/mL [7]: 26%; cytotoxicity at 24 h, 75 μg/mL [7]: 47.4%; cytotoxicity at 24 h, 100 μg/mL [7]: 58.1%; cytotoxicity at 24 h, 25 μg/mL [8]: 10%; cytotoxicity at 24 h, 50 μg/mL [8]: 20.1%; cytotoxicity at 24 h, 75 μg/mL [8]: 32.8%
CC(=O)OC[C@H]1O[C@@H](Nc2nc(-c3ccc(C)cc3)cc(-c3ccccn3)n2)[C@H](OC(C)=O)[C@@H](OC(C)=O)[C@@H]1OC(C)=O [Compound 16, 2,3,4,6-tetra-O-acetyl-N-[4-(4-methylphenyl)-6-pyridin-2-ylpyrimidin-2-yl]-β-D-glucopyranosylamine]	26.4	34.4	48.6	70.2	hypochromically	–	–	–	–	–	–	35.7	62.6	77.1	99.2	> 500	17.1	28.9	63.2	84.7	–
